“Also recorded” adds a separate entry of the source.
Columns and labels:
[1] = tested on: isolated right atrium; test: Agonist activity: effect of compound alone on heart rate or force of isolated right atrium; set-up: species or system guinea pig; settings: cumulative additions, 10^-5 to 10^-3 M
Experimental: (§1) The animals were stunned by a blow to the head and the heart was quickly removed and placed in Tyrode's solution (composition in g/L of distilled water: NaCl, 8.00; KCl, 0.20; MgSO4.7 H2 O, 0.10; CaCl2, 0.20; NaH2 PO4, 0.05; NaHCO3, 1.00; glucose, 1.00) at room temperature. All other tissue was carefully trimmed away, leaving only the right atrium. The base of the atrium was attached to a fixed pin in a 50 mL Magnus bath of the overflow type, while the atrial apex was similarly connected to a physiograph (Narco Bio-Systems) via a photoelectric force transducer (Narco Bio-Systems, sensitivity=0.05 g/cm). A 400 mg tension was constantly applied to the tissue. The Magnus bath was surrounded by water maintained at 37° C. with a constant temperature circulating pump. The bath was continually oxygenated (95% O2, 5% CO2) via a sintered glass gas delivery tube directly beneath the tissue support base.
A KB value was not calculated since the utility of these values is contingent upon the presence of competitive inhibition. […] A non-competitive component of the antagonism would be expected to depress the curve. […] An additional experiment adding only 11 to the bath was carried out in an attempt to detect possible interfering agonist activity. […] The reason for this atypical curve is not known.

[2] = target: T1, histamine H2-receptor (isolated guinea pig right atrium) (Cavia porcellus, UniProt P47747); test: Histamine H2-receptor antagonism: histamine-induced chronotropic response of isolated guinea pig right atrium; settings: for ED50 of histamine (95% CL): histamine ED50 for increase in heart rate, 10^-6 M propranolol; for ED50 of histamine (95% CL) / Slope (95% CL): alone (control) or in presence of 10^-6 M compound, 95% CL in brackets; for slope / shift of the histamine log dose-response curve in presence of compound / histamine H2-receptor antagonist activity: result in words; for histamine H2-receptor antagonist activity: 10^-6 M, guinea pig right atrium; for Slope (95% CL): slope of histamine log dose-response regression line; for ED50 of histamine on the right atrium: histamine alone or with 10^-6 M antagonist, ± as printed in text
T1 construct: All other tissue was carefully trimmed away, leaving only the right atrium; from tissue; host or cells: isolated right atrium of guinea pig (Hartley strain) heart
T1 sequence (P47747 whole entry): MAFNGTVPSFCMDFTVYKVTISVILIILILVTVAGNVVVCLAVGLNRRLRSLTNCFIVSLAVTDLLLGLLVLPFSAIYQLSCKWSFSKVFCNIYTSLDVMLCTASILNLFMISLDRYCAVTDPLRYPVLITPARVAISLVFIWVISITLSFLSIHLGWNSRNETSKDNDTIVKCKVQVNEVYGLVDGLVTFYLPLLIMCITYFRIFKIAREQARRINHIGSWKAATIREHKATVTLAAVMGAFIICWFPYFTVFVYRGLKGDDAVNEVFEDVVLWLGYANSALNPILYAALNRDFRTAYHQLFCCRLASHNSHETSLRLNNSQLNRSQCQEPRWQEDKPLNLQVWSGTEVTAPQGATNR
Experimental: Guinea pigs (Hartley strain) of either sex (400-700 g) were allowed at least two weeks acclimation period. The animals were housed two per cage in wire-meshed bottom stainless steel cages in animal quarters maintained on a 12 hour light:12 hour dark cycle with ambient temperature of approximately 24° C. Food (Ralston-Purina guinea pig chow #5025) and water were provided ad libitum.
as §1
Propanolol (1×10^-6 M) was added to each preparation in order to eliminate the influence of endogenously stored catecholamine release. Following the addition of propanolol, test compound was added and the tissue was allowed to equilibrate for 30 minutes.
Solutions of the test compounds were similarly prepared.
A straight line was fitted to the data points of each determination within each group by linear regression analysis. The slope and the ED50 were calculated from the regression line, the slopes and ED50 values of each group were averaged, and the standard deviations were calculated. Calculation of the linear regression gave values for the correlation coefficient (r) slope, average of x values, average of y values, and log ED50. With this information a straight line representing a mean of the data from the separate determinations of each group could be plotted, i.e. a straight line passing through the mean x value and the mean y value and having the mean slope. The 95 percent confidence limits were calculated using the following formula: confidence limits=±ts√N where t=Student's t value, s=standard deviation, and N=number of determinations.

[3] = target: histamine H1-receptor (isolated guinea pig ileum) (Cavia porcellus, UniProt P31389); test: Histamine H1-receptor antagonism: histamine-induced contraction of isolated guinea pig ileum; settings: result in words, 1×10^-6 M
Chain of histamine H1-receptor (isolated guinea pig ileum) (P31389 whole entry): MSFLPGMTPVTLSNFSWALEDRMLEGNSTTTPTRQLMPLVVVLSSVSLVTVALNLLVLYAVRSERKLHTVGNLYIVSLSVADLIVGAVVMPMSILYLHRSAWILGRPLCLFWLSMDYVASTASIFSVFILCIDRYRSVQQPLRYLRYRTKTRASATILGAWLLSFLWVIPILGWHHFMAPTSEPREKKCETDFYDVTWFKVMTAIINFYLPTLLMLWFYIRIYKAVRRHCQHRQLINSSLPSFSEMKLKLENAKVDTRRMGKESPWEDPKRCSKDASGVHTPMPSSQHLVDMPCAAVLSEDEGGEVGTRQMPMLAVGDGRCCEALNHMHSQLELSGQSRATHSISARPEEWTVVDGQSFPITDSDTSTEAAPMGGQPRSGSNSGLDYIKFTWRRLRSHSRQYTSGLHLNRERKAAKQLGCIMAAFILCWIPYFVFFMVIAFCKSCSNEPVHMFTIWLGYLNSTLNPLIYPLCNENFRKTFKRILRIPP
Experimental: Compounds 11, 17, 18, and 19 were screened for H1 -antihistaminic activity by observing if any significant blockage of histamine-induced contraction of the isolated guinea pig ileum occurred. After sacrificing the guinea pig by a blow to the head, longitudinal segments of the terminal ileum were removed and freed of mesentery and blood vessels. The same apparatus and physiological solution employed in the atrial preparation were used in these experiments. The tissue was loaded with a 500 mg tension and adjustments were made repeatedly until the baseline stabilized at this tension load. Atropine sulfate (1×10^-6 M) was added to block the influence of endogenously stored acetylcholine and the preparation was allowed to equilibrate for 15 minutes before any other compounds were added. The concentration of test compound used was 1×10^-6 M. Visual determination of the absence of significant reduction in histamine-induced contractions of the ileum in the presence and absence of each test compound was interpreted as an absence of H1 -antihistaminic activity. Generally, H1 -antagonism is considered to be potent if significant reduction in ileal contractility occurs with antagonist concentrations less than micromolar.

[4] = tested on: peptic ulcers; settings: cited from earlier work
[5] = tested on: histamine-induced gastric acid secretion; settings: dogs; cited from earlier work
[6] = tested on: H2-receptor (guinea pig isolated right atrium); settings: cited from earlier work
[7] = target: H2-receptor; settings: previously reported; read-out: KB (apparent dissociation constant), previously reported; cited from earlier work

| SMILES | ED50 of histamine (95% CL) [2] | histamine H2-receptor antagonist activity [2] | Slope (95% CL) [2] | H1-antihistaminic activity [3] | other results |
| --- | --- | --- | --- | --- | --- |
| CNC(=S)N[C@@H]1C[C@H]2CC[C@@H](C1)N2Cc1nc[nH]c1C [Compound 11, N-Methyl-N'-[8-(5-methylimidazol-4-yl)methyl-1αH,5αH-nortropan-3β-yl]thiourea] | 40.7 (27.5-60.3) × 10^-7 M | active; also recorded: approximately the same antagonist activity as metiamide | 0.99 (0.95-1.03) | none of these compounds demonstrated significant H1 -antihistiminic activity | effect on heart rate or force of isolated right atrium, compound alone [1]: without effect on heart rate or force; maximum response obtained with histamine in presence of compound ([2]; 10^-6 M compound): 100%; slope / shift of the histamine log dose-response curve in presence of compound ([2]; 10^-6 M compound): significantly steeper (P<0.05) than for metiamide; also recorded: shifted to higher concentrations; histamine H2-receptor antagonist activity ([2]; listed as β-isomer): high H2 -antagonist activity |
| CNC(=S)N[C@H]1C[C@H]2CC[C@@H](C1)N2Cc1nc[nH]c1C [Compound 17, N-Methyl-N'-[8-(5-methylimidazol-4-yl)methyl-1αH,5αH-nortropan-3α-yl]thiourea] | 11.0 (4.37-27.5) × 10^-7 M | without any significant activity; also recorded: None of these compounds demonstrated significant histamine antagonist activity | 0.64 (0.18-1.10) | None of these compounds demonstrated significant histamine antagonist activity | – |
| CNC(=NC#N)N[C@H]1C[C@H]2CC[C@@H](C1)N2Cc1nc[nH]c1C [Compound 18, N"-Cyano-N-methyl-N'-[8-(5-methylimidazol-4-yl)methyl-1αH,5αH-nortropan-3α-yl]guanidine] | 11.0 (5.01-24.0) × 10^-7 M | without significant activity; also recorded: None of these compounds demonstrated significant histamine antagonist activity | 0.64 (0.18-1.10) | None of these compounds demonstrated significant histamine antagonist activity | – |
| CN/C(=N/CCSCc1nc[nH]c1C)NC#N [cimetidine, reference compound] | 49.0 (43.7-55.0) × 10^-7 M | significant antagonism of the chronotropic effect of histamine | 0.67 (0.28-1.06) | – | safety in clinical use [4]: generally a safe agent; ED50 of histamine on the right atrium [2]: 49.0±12.0 ×10^-7 M |
| CNC(=C[N+](=O)[O-])NCCSCc1ccc(CN(C)C)o1 [Ranitidine] | – | – | – | – | prevention of histamine-induced gastric acid secretion [5]: more potent than cimetidine; H2 antagonism [6]: competitive antagonist, more potent than cimetidine |
| NCCc1c[nH]cn1 [histamine, reference compound] | – | – | 0.63 (0.50-0.76) | – | – |
| CNC(=NC#N)N[C@@H]1C[C@H]2CC[C@@H](C1)N2Cc1nc[nH]c1C [Compound 19, N"-Cyano-N-methyl-N'-[8-(5-methylimidazol-4-yl)methyl-1αH,5αH-nortropan-3β-yl]guanidine] | 6.92 (0.22-138.0) × 10^-7 M | without significant activity; also recorded: None of these compounds demonstrated significant histamine antagonist activity | 0.58 (0.23-0.93) | None of these compounds demonstrated significant histamine antagonist activity | – |
| CNC(=S)NCCSCc1nc[nH]c1C [metiamide, reference compound] | 49.0 (30.9-77.6) × 10^-7 M | significant antagonism of the chronotropic effect of histamine | 0.47 (0.41-0.53) | – | healing of peptic ulcers ([4]; clinical trials): effective in promoting the healing of peptic ulcers; safety in clinical use [4]: found to produce agranulocytosis; Kb [7]: 920 nM; Kb ([2]; KB=[B]/(dose ratio-1), 10^-6 M antagonist, read-out: KB (apparent dissociation constant)): 200 nM; ED50 of histamine on the right atrium [2]: 49.0±12.0 ×10^-7 M; slope / shift of the histamine log dose-response curve in presence of compound ([2]; 10^-6 M compound): parallel shift of the dose-response curves of histamine |

— patent publication US4432983A (Research Corporation, priority 1981, dated 1984)
